Results from patent US8563558B2, “Substituted pyridine urea compounds” (Confluence Life Sciences, Inc., priority 2010, dated 2013).
Where “and” joins values, the source holds several entries; their conditions need not be identical. Equal entries are not always repeated.

Columns and labels:
[1] = target: p38α/MK2 (Homo sapiens, UniProt Q16539); assay: p38α/MK2 cascade assay (phosphorylation of Hsp27 peptide, Caliper LabChip 3000); assay type: biochemical; conditions: Hsp27 peptide 1 μM, MgATP 10 μM, 30 minutes, room temperature, two values given, read-out: p38/MK2 IC50
p38α/MK2, sequence (Q16539 whole entry): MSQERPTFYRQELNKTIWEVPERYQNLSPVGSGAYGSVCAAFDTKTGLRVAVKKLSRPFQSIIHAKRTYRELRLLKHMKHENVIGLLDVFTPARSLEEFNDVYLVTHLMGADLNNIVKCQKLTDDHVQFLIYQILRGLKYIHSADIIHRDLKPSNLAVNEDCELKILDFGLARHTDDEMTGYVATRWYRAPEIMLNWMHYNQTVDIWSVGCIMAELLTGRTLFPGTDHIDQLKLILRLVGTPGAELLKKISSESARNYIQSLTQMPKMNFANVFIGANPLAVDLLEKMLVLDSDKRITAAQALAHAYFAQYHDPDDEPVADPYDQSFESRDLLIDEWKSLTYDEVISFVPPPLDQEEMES
p38α/MK2, sequence (P49137 whole entry partner): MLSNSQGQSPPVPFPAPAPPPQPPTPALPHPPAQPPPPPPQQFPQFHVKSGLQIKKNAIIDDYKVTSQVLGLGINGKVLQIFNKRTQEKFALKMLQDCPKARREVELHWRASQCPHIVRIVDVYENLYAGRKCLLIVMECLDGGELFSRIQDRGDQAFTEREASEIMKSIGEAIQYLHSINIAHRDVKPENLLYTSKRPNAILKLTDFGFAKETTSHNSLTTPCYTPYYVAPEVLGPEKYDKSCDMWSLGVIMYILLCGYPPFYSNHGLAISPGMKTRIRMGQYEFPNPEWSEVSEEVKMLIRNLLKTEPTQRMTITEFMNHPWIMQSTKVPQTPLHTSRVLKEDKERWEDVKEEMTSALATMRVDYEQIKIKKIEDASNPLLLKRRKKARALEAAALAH
Protocol: (§1) P38 inhibitory potency and P38/MK2 substrate selectivity: The novel, MK2 substrate-selective inhibitory mechanism of compounds is evaluated in enzyme assays comparing inhibitor potency in blocking p38/MK2 versus p38/PRAK induced phosphorylation of an HSP-27 derived peptide substrate. The ability of compounds to inhibit activated phospho-p38α is evaluated using a p38α/MK2 and a p38α/PRAK cascade assay format. The kinase activity of p38α is determined by its ability to phosphorylate GST-MK2 or GST-PRAK. Activation of MK2 or PRAK by p38α is quantitated by measuring the phosphorylation of a fluorescently-labeled, MK2 specific peptide substrate, Hsp27 peptide (FITC-KKKALSRQLSVAA). The phosphorylation of the Hsp27 peptide is quantified using the Caliper LabChip 3000. Kinase reactions are carried out in a 384-well plate (Matrical, MP101-1-PP) in 20 mM HEPES pH 7.5, 10 mM MgCl2, 0.0005% Tween-20, 0.01% BSA, 1 mM DTT, and 2% DMSO. The inhibitor concentration is varied between 0.02-30,000 nM, while the Hsp27 peptide substrate and MgATP are held constant at 1 μM and 10 μM, respectively. Activated p38α is added to a final concentration of […] for reactions with nonphosphorylated 1 nM His6-MK2 in the cascade reaction. For the p38α/PRAK cascade, unactivated GST-PRAK is held constant at 1 nM while p38α is added in to a final concentration of […]. Kinase reactions are incubated at room temperature and quenched after 30 minutes by the addition of stop buffer (180 mM HEPES, 30 mM EDTA, and 0.2% Coating Reagent-3). Under these conditions, approximately 20% of the substrate Hsp27 peptide is phosphorylated. Reactions are initiated by the addition of activated p38α except for preincubation experiments, where reactions are initiated by the addition of Hsp27 peptide and MgATP. Preincubation of p38α with inhibitor or p38α with unactivated His6-MK2 or unactivated GST-PRAK and inhibitor are performed at 2× final assay concentrations at room temperature 240 minutes prior to adding ATP and Hsp27 peptide to initiate catalysis. The p38α compound inhibitory potency is quantitated from dose-response IC50 values or Ki values from p38α/MK2 cascade assays while the substrate selectivity is calculated as a ratio of p38α/PRAK:p38α/MK2 IC50 values. Species compounds of Formula I, described hereinabove, evaluated in this assay, are expected to provide a therapeutic benefit in the treatment of p38 kinase mediated diseases, such as autoimmune diseases and lymphoma.

[2] = target: p38α/PRAK (Homo sapiens, UniProt Q16539); assay: p38α/PRAK cascade assay (phosphorylation of Hsp27 peptide, Caliper LabChip 3000); assay type: biochemical; conditions: Hsp27 peptide 1 μM, MgATP 10 μM, 30 minutes, room temperature, two values given, read-out: p38/PRAK IC50
p38α/PRAK, sequence (Q16539 whole entry): as the sequence (Q16539 whole entry) above
Protocol: as §1

| Structure (SMILES) | IC50 [1] | IC50 [2] |
| --- | --- | --- |
| COC(=O)c1ccc(N(C(N)=O)c2cc(-c3ccnc(C(C)(C)C)n3)ccc2C)nc1-c1ccc(F)cc1F [Example 32, methyl 6-(1-(5-(2-(tert-butyl)pyrimidin-4-yl)-2-methylphenyl)ureido)-2-(2,4-difluorophenyl)nicotinate] | 838 nM and 955 nM | > 10 µM |
| Cc1ccc(-c2ccnc(C(C)(C)C)n2)cc1N(C(N)=O)c1cccc(-c2ccc(F)cc2F)n1 [Example 31, 1-(5-(2-(tert-butyl)pyrimidin-4-yl)-2-methylphenyl)-1-(6-(2,4-difluorophenyl)pyridin-2-yl)urea] | 1270 nM and 1530 nM | > 50 µM |
| Cc1ccc(-c2ccnc(C(C)(C)O)n2)cc1N(C(N)=O)c1cccc(-c2ccc(F)cc2F)n1 [Example 5, 1-(6-(2,4-difluorophenyl)pyridin-2-yl)-1-(5-(2-(2-hydroxypropan-2-yl)pyrimidin-4-yl)-2-methylphenyl)urea] | 340 nM and 360 nM | 1.9 µM and 2.6 µM |
| Cc1nc(-c2cccc(N(C(N)=O)c3cc(-c4ccnc(C(C)(C)C)n4)ccc3C)n2)cs1 [Example 33, 1-(5-(2-(tert-butyl)pyrimidin-4-yl)-2-methylphenyl)-1-(6-(2-methylthiazol-4-yl)pyridin-2-yl)urea] | 9500 nM and 12000 nM | > 50 µM |
| Cc1ccc(-c2ccnc(C(C)(C)C)n2)cc1N(C(N)=O)c1ccc(C(N)=O)c(-c2ccc(F)cc2F)n1 [Example 17, 6-(1-(5-(2-(tert-butyl)pyrimidin-4-yl)-2-methylphenyl)ureido)-2-(2,4-difluorophenyl)nicotinamide] | 550 nM and 500 nM | > 10 µM |
